Measurements as given in US20190076452A1, “THERAPEUTIC COMBINATIONS FOR TREATING NEOPLASIA” (MEDIMMUNE LIMITED, priority 2014, published 2019).

Columns and labels:
CT26 cells = assay: CT26 tumor model, preventative treatment before measurable tumor; format: in vivo, Balb/C mice
Method: (§1) A CT26 model was used in several studies. CT26 cells are murine colon cancer cells. CT26 cells were obtained from the ATCC (Manassas, Va.), and were grown with RPMI supplemented with 10% fetal bovine serum. Following receipt, cell lines were re-authenticated using STR-based DNA profiling and multiplex PCR (IDEXX Bioresearch, Columbia, Mo.). Cells were grown in monolayer culture, harvested by trypsinizatin, and implanted subcutaneously into the right flank of 6-8 week old female Balb/C (CT26), C57/Bl6 (MCA205), or 4-6 week athymic female nude mice (Harlan, Indianapolis, Ind.). For the CT26 tumor model, 5×10^5 cells were implanted in the right flank using a 26-gauge needle. Antibodies were obtained from Anti-PD-1 (RMP1-14), anti-PD-L1 (10F.9G2), anti-CTLA-4 (9D9), and mouse IgG2b control (MPC-11). Mouse OX40 fusion protein (OX40 FP) and Rat IgG2a isotype control antibodies were produced by MedImmune (Gaithersburg, Md.). All antibodies and OX40 FP were dosed via intraperitoneal injection. Doxil (Bluedoor Pharma, Rockville, Md.) and doxorubicin (Henry Schein, Melville, N.Y.) were dosed via intravenous administration. In some studies, isotype controls were administered to mice as a cocktail of rat IgG2a and mouse IgG2b. At the beginning of treatment, mice were either randomized by tumor volume (established-tumor studies) or by body weight (preventative studies). The number of animals per group ranged from between 10-12 animals per group as determined based on sample size calculations using nQuery software. Both tumor and body weight measurements were collected twice weekly and tumor volume calculated using the equation (L×W^2)/2, where L and W refers to the length and width dimensions, respectively. Error bars were calculated as standard error of the mean. The general health of mice was monitored daily and all experiments were conducted in accordance to AAALAC and MedImmune IACUC guidelines for humane treatment and care of laboratory animals.

CT26 tumors [1] = assay: Established CT26 tumors in T cell-deficient athymic nude mice; format: in vivo; details: maximally tolerated doses, tumors approximately 200 mm^3, immunodeficient mice
Method: FIG. 4A is a graph showing tumor volume in CT26 tumor-bearing athymic nude mice dosed with Doxil (5 mg/kg) or Doxorubicin (5 mg/kg) as indicated. FIG. 4B is a graph showing tumor volume in CT26 tumor-bearing Balb/C mice dosed with Doxil (5 mg/kg) or Doxorubicin (5 mg/kg) as indicated. FIG. 4C is a graph showing tumor volume in CT26 tumor-bearing athymic nude mice dosed with gemcitabine (75 mg/kg) as indicated. FIG. 4D is a graph showing tumor volume in CT26 tumor-bearing Balb/C mice dosed with gemcitabine (75 mg/kg) as indicated. FIG. 4E is a graph showing tumor volume in CT26 tumor-bearing athymic nude mice dosed with oxiplatin (8 mg/kg) as indicated. […]
(§2) A CT26 model was used in several studies. […] The number of animals per group ranged from between 10-12 animals per group as determined based on sample size calculations using nQuery software. Both tumor and body weight measurements were collected twice weekly and tumor volume calculated using the equation (L×W^2)/2, where L and W refers to the length and width dimensions, respectively. Error bars were calculated as standard error of the mean. The general health of mice was monitored daily and all experiments were conducted in accordance to AAALAC and MedImmune IACUC guidelines for humane treatment and care of laboratory animals.

CT26 tumors [2] = assay: Established CT26 tumors in immunocompetent Balb/C mice; format: in vivo; details: maximally tolerated doses, tumors approximately 200 mm^3, immunocompetent mice
Method: FIG. 4A is a graph showing tumor volume in CT26 tumor-bearing athymic nude mice dosed with Doxil (5 mg/kg) or Doxorubicin (5 mg/kg) as indicated. FIG. 4B is a graph showing tumor volume in CT26 tumor-bearing Balb/C mice dosed with Doxil (5 mg/kg) or Doxorubicin (5 mg/kg) as indicated. FIG. 4C is a graph showing tumor volume in CT26 tumor-bearing athymic nude mice dosed with gemcitabine (75 mg/kg) as indicated. FIG. 4D is a graph showing tumor volume in CT26 tumor-bearing Balb/C mice dosed with gemcitabine (75 mg/kg) as indicated. FIG. 4E is a graph showing tumor volume in CT26 tumor-bearing athymic nude mice dosed with oxiplatin (8 mg/kg) as indicated. FIG. 4F is a graph showing tumor volume in CT26 tumor-bearing Balb/C mice dosed with oxiplatin (8 mg/kg) as indicated. Arrows indicate dose administration.
as §1, with “Antibodies were obtained from Anti-PD-1 (RMP1-14), anti-PD-L1 (10F.9G2), anti-CTLA-4 (9D9), and mouse IgG2b control (MPC-11). Mouse OX40 fusion protein (OX40 FP) and Rat IgG2a isotype control antibodies were produced by MedImmune (Gaithersburg, Md.). All antibodies and OX40 FP were dosed via intraperitoneal injection. Doxil (Bluedoor Pharma, Rockville, Md.) and doxorubicin (Henry Schein, Melville, N.Y.) were dosed via intravenous administration. In some studies, isotype controls were administered to mice as a cocktail of rat IgG2a and mouse IgG2b. At the beginning of treatment, mice were either randomized by tumor volume (established-tumor studies) or by body weight (preventative studies).” left out

MCA205 tumors = assay: Established MCA205 syngeneic tumor model; format: in vivo, C57/Bl6 mice; details: maximally efficacious doses
Description: FIGS. 7A-7L show synergistic anti-tumor responses of Doxil in combination with α-PD-1, α-PD-L1 and α-CTLA-4 antibodies in the MCA205 syngeneic model. FIG. 7A is a graph depicting tumor volume in untreated mice. FIG. 7B is a graph depicting tumor volume in mice administered Doxil. FIG. 7C is a graph depicting tumor volume in mice administered OX40L fusion protein (FP). FIG. 7D is a graph depicting tumor volume in mice administered α-PD-1. FIG. 7E is a graph depicting tumor volume in mice administered α-PD-L1. FIG. 7F is a graph depicting tumor volume in mice administered α-CTLA-4. FIG. 7G is a graph depicting tumor volume in mice administered GITR ligand fusion protein (GITRL FP). […]
As CT26 is highly sensitive to immunotherapies, it was determined whether Doxil could enhance the activity of immunotherapies in a less sensitive model, MCA205. […]
MCA205 cells were obtained from Agonox (Portland, Oreg.) and grown in RPMI supplemented with 10% fetal bovine serum. […] The number of animals per group ranged from between 10-12 animals per group as determined based on sample size calculations using nQuery software. Both tumor and body weight measurements were collected twice weekly and tumor volume calculated using the equation (L×W^2)/2, where L and W refers to the length and width dimensions, respectively. Error bars were calculated as standard error of the mean. […]

CT26 tumors [3] = assay: Established CT26 tumor model, Doxil combined with immunotherapies; format: in vivo, Balb/C mice; details: maximally efficacious doses
Description: FIGS. 5A-5L show synergistic anti-tumor responses of Doxil in combination with multiple immunotherapies in an established CT26 tumor model. FIG. 5A is a graph depicting tumor volume in untreated mice. FIG. 5B is a graph depicting tumor volume in mice administered Doxil. FIG. 5C is a graph depicting tumor volume in mice administered OX40L fusion protein (FP). FIG. 5D is a graph depicting tumor volume in mice administered α-PD-1. FIG. 5E is a graph depicting tumor volume in mice administered α-PD-L1. FIG. 5F is a graph depicting tumor volume in mice administered α-CTLA-4. FIG. 5G is a graph depicting tumor volume in mice administered GITR ligand fusion protein (GITRL FP). FIG. 5H is a graph depicting tumor volume in mice administered Doxil+OX40L FP. […]
as §2, with “animals. […]” for “animals.”

xenograft model = details: T-cell dependent mechanism; cited from earlier work

Question: Which “No. of CRs” value (CT26 cells; 1 mg/kg) does the source give for COc1cccc2c1C(=O)c1c(O)c3c(c(O)c1C2=O)C[C@@](O)(C(=O)CO)C[C@@H]3O[C@H]1C[C@H](N)[C@H](O)[C@H](C)O1 [Doxorubicin, doxorubicin] here?
Answer: Its value is 0/10.

Question: And the “No. of CRs” value (CT26 cells; 4 mg/kg)?
Answer: The value was 2/10.

Question: What about the “number of complete responders” value (CT26 cells; doxorubicin 4 mg/kg alone or combined with antibody) of the same molecule?
Answer: The value was 2 animals.

Question: What about the anti-tumor activity (CT26 tumors [1]) of the same molecule?
Answer: Its anti-tumor activity is “did not elicit anti-tumor activity”.

Question: What about the anti-tumor activity (CT26 tumors [2]) of the same molecule?
Answer: Its anti-tumor activity is “did not elicit anti-tumor activity”.

Question: For O=C1[O][Pt]2([NH][C@@H]3CCCC[C@H]3[NH]2)[O]C1=O [Oxaliplatin], which anti-tumor activity (CT26 tumors [2]) is on record?
Answer: Its anti-tumor activity is “increased antitumor activity”.

Question: What does the source list for Nc1ccn([C@@H]2O[C@H](CO)[C@@H](O)C2(F)F)c(=O)n1 [gemcitabine]?
Answer: anti-tumor activity (CT26 tumors [1]): significant anti-tumor activity; anti-tumor activity (CT26 tumors [2]): significant anti-tumor activity

B1: OX40 FP: mouse OX40 fusion protein produced by MedImmune (protein)
chain: SSSPAKDPPIQRLRGAVTRCEDGQLFISSYKNEYQTMEVQNNSVVIKCDGLYIIYLKGSFFQEVKIDLHFREDHNPISIPMLNDGRRIVFTVVASLAFKDKVYLTVNAPDTLCEHLQINDGELIVVQLTPGYCAPEGSYHSTVNQVPL
modifications: left off: a dimerising Fc or GST
notes: mouse OX40 fusion protein produced by MedImmune
Question: What does the source list for B1?
Answer: anti-tumor activity (MCA205 tumors; tumors 100-150 mm^3): minimally active; complete response (MCA205 tumors; tumors 100-150 mm^3, out of 12 mice): one; anti-tumor activity (CT26 tumors [3]; tumors 200-300 mm^3): low to moderate activity; complete responders (CT26 tumors [3]; tumors 200-300 mm^3, out of 12 mice): a few

B2: MEDI4736: human monoclonal antibody directed against human PD-L1 (antibody, V domains shown)
VH: EVQLVESGGGLVQPGGSLRLSCAASGFTFSRYWMSWVRQAPGKGLEWVANIKQDGSEKYYVDSVKGRFTISRDNAKNSLYLQMNSLRAEDTAVYYCAREGGWFGELAFDYWGQGTLVTVSS
VL: EIVLTQSPGTLSLSPGERATLSCRASQRVSSSYLAWYQQKPGQAPRLLIYDASSRATGIPDRFSGSGSGTDFTLTISRLEPEDFAVYYCQQYGSLPWTFGQGTKVEIK
Question: For B2, which tumor growth (xenograft model) is on record?
Answer: The tumor growth was “inhibits tumor growth”.
